Results taken from US20050048113A1, “Composition and method for treatment or prevention of oral cavity disorders” (priority 2003, published 2005).

How the values were obtained:
[1] = famotidine 40 mg per day, sublingual vs p.o. vs no treatment, 3 weeks each; pH 1, 2, 3 hours after a meal and at wakeup; preliminary results
Procedure: An ongoing study is now being carried out on healthy young (25-40 years old) volunteers. The oral cavity pH is measured 1, 2, and 3 hours after a meal and at wakeup in the morning. These measurements are done daily for each participant, 3 weeks without treatment, 3 weeks under sublingual famotidine (40 mg per day), and 3 weeks under p.o. famotidine (40 mg per day).

[2] = test system: male participants suffering from gingivitis; assay: Loe Silness gingival index (GI) in participants suffering from gingivitis; assay type: in vivo, human
Procedure: Twelve male participants (24-42 years old) suffering from gingivitis were divided into 4 groups. Participants of the first group (No.=3) were treated by conventional oral hygiene procedures, including mechanical procedures and usage of mouthwash preparations for 3 months. Participants of the second group (No. =3) were treated by swallowing tablet of Famotidine 40 mg, once daily at bed time, for 3 months. Participants of the third group (No.=3) were treated by sublingual tablet of Famotidine 40 mg, once daily at bed time, for 3 months. Participants of the fourth group (No.=3) were treated by sublingual tablet of Omeprazole 20 mg, once daily at bed time, for 3 months. All participants were screened for dental caries and treated accordingly.
Each participant was examined at recruitment and after then bi-weekly up to 3 months from recruitment (7 examinations for each participant). At each visit gingival index was determined using a standard Loe Silness gingival index (GI) chart, which is accessible at the following website: http://www.medal.org/sheets/ch9/gingival %20index %20Loe %20Silness.xls.
The GI scores of examination No.7 (at 3 months from recruitment) compared to GI scores at examination No.1 (at recruitment), were calculated as mean GI reduction for each group.

[3] = test system: -person suffering from accelerated cariogenicity and progressive gingivitis
[4] = test system: proton-translocating membrane ATPases of oral streptococci; conditions: cited from earlier work
[5] = Famotidine 40 mg per day, tablets swallowed, half year later

In the case of NC(N)=Nc1nc(CSCCC(N)=NS(N)(=O)=O)cs1 [Famotidine], the “rank order of the highest oral cavity pH” value [1] is reported as “Sublingual Famotidine treatment>p.o. Famotidine treatment>no treatment”, the “mean GI reduction” value ([2]; sublingual tablet 40 mg once daily at bed time, 3 months vs recruitment (third group)) is reported as 31% and the “mean GI reduction” value ([2]; swallowed tablet 40 mg once daily at bed time, 3 months vs recruitment (second group)) is reported as 17.1%. The epigastric symptoms [3, 5] was “relieved”, the symptoms of reflux [3, 5] was “persisted” and the reflux symptoms ([3]; famotidine tablets taken sublingually instead of swallowed) was “relieved”. The “new caries at twice a year dental follow-ups” value ([3]; next 5 years under sublingual famotidine treatment) was “new caries were not detected” and the gingivitis ([3]; sublingual famotidine, in the following months) was “improved dramatically”.
In the case of COc1ccc2[nH]c([S+]([O-])Cc3ncc(C)c(OC)c3C)nc2c1 (stereo not shown) [Omeprazole], the “mean GI reduction” value ([2]; sublingual tablet 20 mg once daily at bed time, 3 months vs recruitment (fourth group)) is reported as 27.5%.
In the case of [N-]=[N+]=[N-] [azide], the “sensitivity of proton-translocating membrane ATPases to the inhibitor” value (“sensitivity … to the inhibitor” below) [4] is listed as “sensitive”.
In the case of C(=NC1CCCCC1)=NC1CCCCC1 [dicyclohexylcarbodiimide], the “sensitivity … to the inhibitor” value [4] is listed as “sensitive”.
For C[C@@H]1O[C@@H](O[C@H]2C[C@@H](O)[C@]3(CO)[C@H]4[C@H](O)C[C@]5(C)[C@@H](C6=CC(=O)OC6)CC[C@]5(O)[C@@H]4CC[C@]3(O)C2)[C@H](O)[C@H](O)[C@H]1O [ouabain], the “sensitivity … to the inhibitor” value [4] is given as “insensitive”.
In the case of [O]=[V]([O-])([O-])[O-] [vanadate], the “sensitivity … to the inhibitor” value [4] is listed as “insensitive”.
